Consider 4 molecules from publication PMC9870775, “Potent Dual Polymerase/Exonuclease Inhibitory Activities of Antioxidant Aminothiadiazoles Against the COVID-19 Omicron Virus: A Promising In Silico/In Vitro Repositioning Research Study” (Molecular Biotechnology, 2023).

This experiment concerns SARS-CoV-2 (Omicron variant, B.1.1.529.1/BA.1 sublineage). Briefly: microbe, parasite or virus in culture. To be noted: for EC50 / EC90: Severe acute respiratory syndrome coronavirus 2, Vero C1008, 48 h; for EC90: read-out: 90% Reduction in Infectious Virus (EC90). It is filed as cell-based.
The mark [1] stands for this setting: read-out: 50% Reduction in Infectious Virus (EC50).
Where [2] appears, read: read-out: 50% Reduction in Viral RNA Copy (EC50).
[3] abbreviates: after starting administration and treatment.

Where “and” joins values, the source holds several entries; their conditions need not be identical. Equal entries are not always repeated. Where two headings read alike, the source gives them in different places.

Take `Nc1nnc([C@H](O)[C@@H](O)c2nnc(N)s2)s1` [Taroxaz-26, (1R,2R)-1,2-bis(5-amino-1,3,4-thiadiazol-2-yl)ethane-1,2-diol]: the “100% CPE Inhibitory Concentration (CPEIC100)” value was 1.83 µM and 1.83 ± 0.07 µM; the 90% effect concentration (EC90) worked out at 2340 ± 80 nM. The EC50 under setting [1] was 730 ± 30 nM. In addition, the EC50 under setting [2] came to 770 ± 40 nM. The “Time to maximal effectiveness against the Omicron-variant particles” value (“Time to maximal effectiveness” for short) under setting [3] fell in the range of 4 to 10 h.

In the case of `Nc1nnc(CC(O)(Cc2nnc(N)s2)c2nnc(N)s2)s1` [CoViTris2022, 1,2,3-tris(5-amino-1,3,4-thiadiazol-2-yl)propan-2-ol], the “100% CPE Inhibitory Concentration (CPEIC100)” value is 1.60 ± 0.06 µM, the “Time to maximal effectiveness” value is 4 to 10 h and the 90% effect concentration (EC90) stood at 2010 ± 70 nM. Further, the EC50 under setting [1] is 690 ± 30 nM. In addition, the EC50 under setting [2] stood at 700 ± 40 nM.

In the case of `Nc1nnc(-c2cnc3cc(Cl)ccc3c2O)s1` [ChloViD2022, 3-(5-amino-1,3,4-thiadiazol-2-yl)-7-chloroquinolin-4-ol], the “100% CPE Inhibitory Concentration (CPEIC100)” value is 1.09 µM and 1.09 ± 0.04 µM; the concentration for an effect of 90% (EC90) amounted to 1530 ± 50 nM. In addition, the EC50 under setting [1] amounted to 410 ± 20 nM. Besides, the EC50 under setting [2] amounted to 440 ± 20 nM. Moreover, under setting [3], the “Time to maximal effectiveness” value lay in the range of 4 to 10 h.

As for `CC(C)C(=O)OC[C@H]1O[C@@H](n2ccc(NO)nc2=O)[C@H](O)[C@@H]1O` [Molnupiravir, molnupiravir, reference compound], the “100% CPE Inhibitory Concentration (CPEIC100)” value was 6.25 µM and 6.25 ± 0.31 µM; the 90% effect concentration (EC90) was 9160 ± 370 nM.
